Where two headings read alike, the source gives them in different places.
Tests used:
Format in all cases: in vivo
Tetranychus urticae = experiment: Example B7: Action against Tetranychus urticae (sprayed bean plants); settings: 144 h, read-out: reduction in the pest population (% activity)
Procedure: Young bean plants are populated with a mixed population of Tetranychus urticae and sprayed one day later with an aqueous emulsion spray mixture comprising 12.5 ppm of test compound. The plants are incubated for 6 days at 25° C. and subsequently evaluated. The percentage reduction in population (% activity) is determined by comparing the number of dead eggs, larvae and adults on the treated plants with that on untreated plants.

Diabrotica balteata = experiment: Example B6: Action against Diabrotica balteata (sprayed maize seedlings); settings: 144 h, read-out: reduction in the pest population (% activity)
Procedure: Maize seedlings are sprayed with an aqueous emulsion spray mixture comprising 12.5 ppm of the test compound and, after the spray-coating has dried, the maize seedlings are populated with 10 Diabrotica balteata larvae in the second stage and then placed in a plastics container. 6 days later, the percentage reduction in population (% activity) is determined by comparing the number of dead larvae on the treated plants with that on untreated plants.

Spodoptera littoralis = experiment: Example B1: Action against Spodoptera littoralis (sprayed soybean plants); settings: 72 h, read-out: reduction in the pest population (% activity)
Procedure: Young soybean plants are sprayed with an aqueous emulsion spray mixture comprising 12.5 ppm of test compound and, after the spray-coating has dried, the plants are populated with 10 caterpillars of Spodoptera littoralis in the first stage and then placed in a plastics container. 3 days later, the percentage reduction in population and the percentage reduction in feeding damage (% activity) are determined by comparing the number of dead caterpillars and the feeding damage on the treated plants with that on untreated plants.

Plutella xylostella = experiment: Example B4: Action against Plutella xylostella caterpillars (sprayed cabbage plants); settings: 72 h, read-out: reduction in the pest population (% activity)
Procedure: Young cabbage plants are sprayed with an aqueous emulsion spray mixture comprising 12.5 ppm of test compound. After the spray-coating has dried, the cabbage plants are populated with 10 caterpillars of Plutella xylostella in the first stage and placed in a plastics container. Evaluation is made 3 days later. The percentage reduction in population and the percentage reduction in feeding damage (% activity) are determined by comparing the number of dead caterpillars and the feeding damage on the treated plants with that on the untreated plants.

[1] = 12.5 ppm spray on young bean plants, mixed population, 6 days at 25° C.
[2] = 12.5 ppm spray on maize seedlings, second-stage larvae, evaluated 6 days later
[3] = 12.5 ppm spray on young soybean plants, first-stage caterpillars, evaluated 3 days later vs untreated plants
[4] = 12.5 ppm spray on young cabbage plants, first-stage caterpillars, evaluated 3 days later

Measured: inhibition at 12.5 ppm

O=C(O)c1ccccc1-c1ccccc1 [B.11, 2-phenyl-benzoic acid]
> 80%: Tetranychus urticae; [1] | Diabrotica balteata; [2] | Spodoptera littoralis; [3] | Plutella xylostella; [4]

Cc1ccc(C(=O)O)cc1 [B.32, p-toluic acid]
> 80%: Tetranychus urticae; [1] | Diabrotica balteata; [2] | Spodoptera littoralis; [3] | Plutella xylostella; [4]

O=C(O)c1cccc(F)c1 [B.41, 3-fluoro-benzoic acid]
> 80%: Tetranychus urticae; [1] | Diabrotica balteata; [2] | Spodoptera littoralis; [3] | Plutella xylostella; [4]

Cc1ccc(C)c(C(=O)O)c1 [B.44, 2,5-dimethyl-benzoic acid]
> 80%: Tetranychus urticae; [1] | Diabrotica balteata; [2] | Spodoptera littoralis; [3] | Plutella xylostella; [4]

O=C(O)CCCOc1ccccc1 [B.70, 4-phenoxy-butyric acid]
> 80%: Tetranychus urticae | Diabrotica balteata | Spodoptera littoralis | Plutella xylostella

CC(C)(C)c1ccc(C(=O)O)cc1 [B.71, 4-tert-butyl-benzoic acid]
> 80%: Tetranychus urticae; [1] | Diabrotica balteata; [2] | Spodoptera littoralis; [3] | Plutella xylostella; [4]

O=C(O)c1ccc(O)cc1O [B.82, 2,4-dihydroxy-benzoic acid]
> 80%: Tetranychus urticae; [1] | Diabrotica balteata; [2] | Spodoptera littoralis; [3] | Plutella xylostella; [4]

From patent publication US7678773B2, “Salts of avermectins substituted in the 4″-position and having pesticidal properties” (Merial Limited, priority 2001, dated 2010)
